According to PubChem BioAssay AID330 (DTP/NCI, 2004):
Values joined by “and” are separate entries in the source; they are usually repeats but may differ in a detail not shown here. Equal values may be shown once. Inconclusive results and toxic doses are left out. Rule for the calls: active = survival T/C of 150% or more; inactive = T/C below 125% in these data.

System: P388 leukemia ip, CD2F1 mice, survival T/C
Assay: NCI In Vivo Anticancer Drug Screen. Data for tumor model P388 Leukemia (intraperitoneal) in CD2F1 (CDF1) mice
Conditions: endpoint: median survival time, higher = longer survival
How it was run: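 Mice carrying the transplanted tumor received test compound or vehicle. Survival was recorded in each group, and the value is the treated-group measurement divided by that of the vehicle-treated control group.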

[1] = dose: 50.0 mg/kg/injection, schedule: Q01DX005 (ip), vehicle: saline with Tween-80
[2] = dose: 100.0 mg/kg/injection, schedule: Q01DX005 (ip), vehicle: saline with Tween-80
[3] = dose: 200.0 mg/kg/injection, schedule: Q01DX005 (ip), vehicle: saline with Tween-80
[4] = dose: 50.0 mg/kg/injection, schedule: Q01DX005 (ip), vehicle: Klucel (hydroxypropylcellulose) (HPC)
[5] = dose: 100.0 mg/kg/injection, schedule: Q01DX005 (ip), vehicle: Klucel (hydroxypropylcellulose) (HPC)
[6] = dose: 200.0 mg/kg/injection, schedule: Q01DX005 (ip), vehicle: Klucel (hydroxypropylcellulose) (HPC)
[7] = dose: 60.0 mg/kg/injection, schedule: Q01DX005 (ip), vehicle: saline with Tween-80
[8] = dose: 50.0 mg/kg/injection, schedule: Q01DX009 (ip), vehicle: saline
[9] = dose: 100.0 mg/kg/injection, schedule: Q01DX009 (ip), vehicle: saline
[10] = dose: 50.0 mg/kg/injection, schedule: Q01DX009 (ip), vehicle: saline with Tween-80
[11] = dose: 100.0 mg/kg/injection, schedule: Q01DX009 (ip), vehicle: saline with Tween-80
[12] = dose: 200.0 mg/kg/injection, schedule: Q01DX009 (ip), vehicle: saline with Tween-80
[13] = dose: 25.0 mg/kg/injection, schedule: Q01DX009 (ip), vehicle: saline

Measured: T/C

CCOC(=O)C(N=Nc1ccc(Br)cc1C)C(C)=O (stereo not given)
inactive: dose: 25.0 mg/kg/injection, schedule: Q01DX005 (ip), vehicle: saline with Tween-80 98 % of control | [1] 99 % of control | [2] 98 % of control | [3] 89 % of control

Nc1ccc(N=Nc2cccc3c(N=Nc4ccc(N)nc4N)cccc23)c(N)n1
inactive: dose: 25.0 mg/kg/injection, schedule: Q01DX005 (ip), vehicle: Klucel (hydroxypropylcellulose) (HPC) 97 % of control | [4] 100 % of control | [5] 98 % of control | [6] 93 % of control

O=c1ccc2nccc3c4cc(O)ccc4n1c23
inactive: dose: 1.75 mg/kg/injection, schedule: Q01DX009 (ip), vehicle: saline with Tween-80 98 % of control | dose: 7.0 mg/kg/injection, schedule: Q01DX009 (ip), vehicle: saline with Tween-80 109 % of control

Cc1c(-c2ccccc2)nc(N(C)C)oc1=O
inactive: [7] 105 % of control | dose: 120.0 mg/kg/injection, schedule: Q01DX005 (ip), vehicle: saline with Tween-80 101 % of control | dose: 240.0 mg/kg/injection, schedule: Q01DX005 (ip), vehicle: saline with Tween-80 100 % of control

CN1CCCc2c1n(-c1ccccc1)c(=O)n(-c1ccccc1)c2=O
inactive: [4] 100 % of control | [5] 101 % of control | [6] 99 % of control

CCN(CC)c1c(C)nnc2c3c(-c4ccccc4)c(-c4ccccc4)nnc3nn12
inactive: dose: 50.0 mg/kg/injection, schedule: Q04DX003 (ip), vehicle: saline with Tween-80 86 % of control | dose: 200.0 mg/kg/injection, schedule: Q04DX003 (ip), vehicle: saline with Tween-80 86 % of control | dose: 400.0 mg/kg/injection, schedule: Q04DX003 (ip), vehicle: saline with Tween-80 91 % of control

CCN(CC)CC1(CC(=O)N2c3ccccc3Sc3ccccc32)COC1
inactive: [8] 107 % of control | [9] 100 % of control | dose: 200.0 mg/kg/injection, schedule: Q01DX009 (ip), vehicle: saline 105 % of control

CC(c1ccccc1)C1CC1 (stereo not given)
inactive: [10] 103 % of control | [11] 107 % of control | [12] 98 % of control

C/C(=N\NC(N)=O)C1(c2ccccc2)CCN(C)CC1
inactive: dose: 100.0 mg/kg/injection, schedule: Q04DX002 (ip), vehicle: Klucel (hydroxypropylcellulose) (HPC) 100 % of control | dose: 200.0 mg/kg/injection, schedule: Q04DX002 (ip), vehicle: Klucel (hydroxypropylcellulose) (HPC) 97 % of control | dose: 400.0 mg/kg/injection, schedule: Q04DX002 (ip), vehicle: Klucel (hydroxypropylcellulose) (HPC) 96 % of control

CN(C)S(=O)(=O)Nc1cccc(Br)c1
inactive: [10] 103 % of control | [11] 102 % of control | [12] 106 % of control

C/C=C(\C)C(=O)OC1C2C(C)=CC(O)C(O)C2(C)C2C3(O)OCC24C1OC(=O)C(O)C4C(C)C3O (stereo not given)
inactive: dose: 2.5 mg/kg/injection, schedule: Q01DX005 (ip), vehicle: Klucel (hydroxypropylcellulose) (HPC) 108 % of control | dose: 5.0 mg/kg/injection, schedule: Q01DX005 (ip), vehicle: Klucel (hydroxypropylcellulose) (HPC) 102 % of control | dose: 10.0 mg/kg/injection, schedule: Q01DX005 (ip), vehicle: Klucel (hydroxypropylcellulose) (HPC) 100 % of control | dose: 20.0 mg/kg/injection, schedule: Q01DX005 (ip), vehicle: Klucel (hydroxypropylcellulose) (HPC) 105 % of control

C=COc1ccccc1C1=NC(C(C)(C)C)(C(C)(C)C)P(OC)(OC)(OC)O1
inactive: dose: 100.0 mg/kg/injection, schedule: Q04DX003 (ip), vehicle: saline 102 % of control | dose: 200.0 mg/kg/injection, schedule: Q04DX003 (ip), vehicle: saline 108 % of control | dose: 400.0 mg/kg/injection, schedule: Q04DX003 (ip), vehicle: saline 100 % of control

C=C1C(=O)OC2/C=C(\C)CC(O)/C=C(\C)CC(OC(=O)/C(=C\C)COC(C)=O)C12 (stereo not given)
inactive: dose: 6.25 mg/kg/injection, schedule: Q01DX009 (ip), vehicle: saline with Tween-80 98 % of control | dose: 12.5 mg/kg/injection, schedule: Q01DX009 (ip), vehicle: saline with Tween-80 97 % of control | dose: 25.0 mg/kg/injection, schedule: Q01DX009 (ip), vehicle: saline with Tween-80 104 % of control | [10] 104 % of control

CCOC(=O)CON1C(=O)CCC1=O
inactive: dose: 25.0 mg/kg/injection, schedule: Q01DX005 (ip), vehicle: saline 102 % of control | dose: 50.0 mg/kg/injection, schedule: Q01DX005 (ip), vehicle: saline 102 % of control | dose: 100.0 mg/kg/injection, schedule: Q01DX005 (ip), vehicle: saline 100 % of control | dose: 200.0 mg/kg/injection, schedule: Q01DX005 (ip), vehicle: saline 105 % of control

COC(=O)Nc1ccc2c(c1)Cc1cc(NC(=O)OC)ccc1-2
inactive: [1] 94 % of control | [2] 92 % of control | [3] 90 % of control

CC(O)C1/C=C/C=C\C(=O)O[C@@H]2C[C@H]3OC4C5OC5(C)CCC4(COC(=O)C4O[C@@]4(C)CCO1)[C@]2(C)[C@]31CO1 (stereo not given in full)
inactive: dose: 1.25 mg/kg/injection, schedule: Q01DX009 (ip), vehicle: Klucel (hydroxypropylcellulose) (HPC) 104 % of control | dose: 2.5 mg/kg/injection, schedule: Q01DX009 (ip), vehicle: Klucel (hydroxypropylcellulose) (HPC) 113 % of control | dose: 5.0 mg/kg/injection, schedule: Q01DX009 (ip), vehicle: Klucel (hydroxypropylcellulose) (HPC) 118 % of control | dose: 10.0 mg/kg/injection, schedule: Q01DX009 (ip), vehicle: Klucel (hydroxypropylcellulose) (HPC) 122 % of control

N#C/C(=C\c1ccccn1)c1ccc(Cl)cc1
inactive: dose: 18.75 mg/kg/injection, schedule: Q01DX009 (none), vehicle: saline 100 % of control | dose: 37.5 mg/kg/injection, schedule: Q01DX009 (none), vehicle: saline 99 % of control | dose: 75.0 mg/kg/injection, schedule: Q01DX009 (none), vehicle: saline 90 % of control

CCOC(=O)C[N+]1(C)C2CCC1CC(OC(=O)C(CO)c1ccccc1)C2 (stereo not given)
inactive: dose: 12.5 mg/kg/injection, schedule: Q01DX009 (ip), vehicle: saline 100 % of control | [13] 100 % of control

CC(C)(C)NCC(O)CCl (stereo not given)
inactive: dose: 25.0 mg/kg/injection, schedule: Q01DX009 (ip), vehicle: water 113 % of control | dose: 50.0 mg/kg/injection, schedule: Q01DX009 (ip), vehicle: water 99 % of control | dose: 100.0 mg/kg/injection, schedule: Q01DX009 (ip), vehicle: water 99 % of control | dose: 200.0 mg/kg/injection, schedule: Q01DX009 (ip), vehicle: water 103 % of control

Nc1ccc2nc3cc4c5ccccc5c(=O)c5cccc(c54)n3c(=O)c2c1
inactive: dose: 50.0 mg/kg/injection, schedule: Q01DX005 (ip), vehicle: Klucel + Tween-80 104 % of control

O=[N+]1C=CC=CC1=C1C=CC=CN1[O-]
inactive: [1] 104 % of control | [2] 110 % of control | [3] 103 % of control

CCOC(=O)N1C(C)=CC=C/C1=C/C=C(C#N)C#N
inactive: dose: 100.0 mg/kg/injection, schedule: Q01DX001 (ip), vehicle: saline with Tween-80 94 % of control | dose: 200.0 mg/kg/injection, schedule: Q01DX001 (ip), vehicle: saline with Tween-80 90 % of control | dose: 400.0 mg/kg/injection, schedule: Q01DX001 (ip), vehicle: saline with Tween-80 89 % of control

O=C(/C=N/Nc1ccccc1)Nc1ccccc1C(=O)O
inactive: [4] 102 % of control | [5] 105 % of control | [6] 93 % of control

CCCCCC(CN(C)C)C(/C=C/c1ccccc1Cl)=N\O (stereo not given)
inactive: [8] 106 % of control | [9] 112 % of control

COC(=O)c1cn(C2OC(CO)C(O)C2O)c2ncnc(N)c12 (stereo not given)
inactive: dose: 3.75 mg/kg/injection, schedule: Q01DX005 (ip), vehicle: saline with Tween-80 103 % of control | dose: 7.5 mg/kg/injection, schedule: Q01DX005 (ip), vehicle: saline with Tween-80 104 % of control | dose: 15.0 mg/kg/injection, schedule: Q01DX005 (ip), vehicle: saline with Tween-80 117 % of control and 98 % of control | [7] 100 % of control

c1cn[nH]c1
inactive: [13] 93 % of control | [8] 101 % of control | [9] 111 % of control

CC(C)(O)C1COC2=C1C(=O)c1ccccc1C2=O (stereo not given)
inactive: dose: 50.0 mg/kg/injection, schedule: Q01DX009 (ip), vehicle: other 94 % of control | dose: 100.0 mg/kg/injection, schedule: Q01DX009 (ip), vehicle: other 107 % of control

CN1CCC(CNc2ccccc2)CC1
inactive: dose: 7.5 mg/kg/injection, schedule: Q01DX005 (ip), vehicle: saline 98 % of control | dose: 15.0 mg/kg/injection, schedule: Q01DX005 (ip), vehicle: saline 98 % of control
